Data reported in patent publication US12018011B2, “Macrocyclic compounds and compositions, and methods of preparing and using the same” (Kura Oncology, Inc., priority 2021, dated 2024).
pIC50: −log10 of the molar value.

Assays:
T24/83 cells = assay: T24/83 cell proliferation assay (CellTiter-Glo); format: cell-based; settings: Homo sapiens, 96 h, 4 days
Description: T24/83 cell line was purchased from the European Collection of Authenticated Cell Cultures (Salisbury, UK). Recombinant human farnesyl transferase (FTase) and geranylgeranyl transferase type-1 (GGTase) were obtained from Crelux (Martinsried, Germany). Dansyl labelled GCVLS peptide was purchased from Bachem (Torrance, CA), and Dansyl labelled GCVLL peptide was purchased from Bio Synthesis (Lewisville, TX). Farnesyl Pyrophosphate (FPP) and Geranylgeranyl pyrophosphate (GGPP) were purchased from Cayman (Ann Arbor, MI).
Mutant oncogenic HRAS was originally identified in a human bladder carcinoma cell line called T24. T24/83 is a subline of T24 established more recently that has more favorable growth characteristics for in vitro assays. Thus, T24/83 is a well-characterized mutant HRAS-dependent cell line that is an ideal model for quantifying the HRAS-dependent antitumor activity of farnesyltransferase inhibitors.
T24/83 cells were inoculated into 384 well plates at 100 cells/well, and grown in the presence of inhibitor, 0.7% DMSO as a negative control, or 100 μM tipifarnib as a positive control, at 37° C. for 4 days. Cell viability was assessed using the CellTiter-Glo Kit (CTG) (Promega; Madison, WI). Luminescence was recorded using EnVision microplate reader (PerkinElmer; Waltham, MA). In this assay, tipifarmib was used as a positive control. All the assay plates passed the QC criteria (S/B, Z-factor).

[1] = molecular target: T1, Recombinant human farnesyl transferase (FTase) (Homo sapiens, UniProt P49356); assay: FTase fluorescence assay (farnesylation of dansyl-GCVLS peptide); format: biochemical; settings: recombinant human FTase 2.5 nM, Dansyl-GCVLS 85 nM, FPP 30 nM, 30° C., 50 minutes
T1 construct: purchased Crelux (Martinsried, Germany)

Compound | pIC50 (T24/83 cells) | pIC50 [1]
Cn1cncc1C1(O)c2cccc(c2)CCc2cccc(c2)-c2cc(=O)n(C)c3ccc1cc23 (stereo not shown) [Compound 2, 3-hydroxy-2^1-methyl-3-(1-methyl-1H-imidazol-5-yl)-2^1,2^2-dihydro-2(4,6)-quinolina-1,4(1,3)-dibenzenacyclohexaphan-2^2-one] | 6.30 to 7.30 | 7.00 to 8.00
Cn1cncc1C1(O)c2ccc(Cl)c(c2)OCCc2cccc(c2)-c2cc(=O)[nH]c3ccc1cc23 (racemic) [Compound 25, (rac)-4^4-chloro-3-hydroxy-3-(1-methyl-1H-imidazol-5-yl)-2^1,2^2-dihydro-5-oxa-2(4,6)-quinolina-1,4(1,3)-dibenzenacycloheptaphan-2^2-one] | 6.30 to 7.30 | ≥ 8.00
Cn1cncc1C1(O)c2cccc(c2)OCCc2cccc(c2)-c2cc(=O)n(C)c3ccc1cc23 (stereo not shown) [Compound 23, 3-hydroxy-2^1-methyl-3-(1-methyl-1H-imidazol-5-yl)-2^1,2^2-dihydro-5-oxa-2(4,6)-quinolina-1,4(1,3)-dibenzenacycloheptaphan-2^2-one] | ≥ 7.30 | ≥ 8.00
COc1cc2c3cc(ccc3n1)C(O)(c1cncn1C)c1cnc(C#N)c(c1)COc1cccc-2c1 (stereo not shown) [Compound 60, 3-hydroxy-2^2-methoxy-3-(1-methyl-1H-imidazol-5-yl)-6-oxa-2(4,6)-quinolina-4(3,5)-pyridina-1(1,3)-benzenacyclohexaphane-4^6-carbonitrile] | < 6.30 | 7.00 to 8.00
Cn1cncc1[C@@]1(N)c2ccc(C#N)c(c2)OCc2cccc(c2)-c2cc(=O)n(C)c3ccc1cc23 [(S)-19, (S)-3-amino-2^1-methyl-3-(1-methyl-1H-imidazol-5-yl)-2^2-oxo-2^1,2^2-dihydro-5-oxa-2(4,6)-quinolina-1,4(1,3)-dibenzenacyclohexaphane-4^4-carbonitrile] | ≥ 7.30 | ≥ 8.00
Cn1cncc1C1(O)c2cccc(c2)COc2cccc(c2)-c2cc(=O)n(C)c3ccc1cc23 (stereo not shown) [Compound 42, 3-hydroxy-2^1-methyl-3-(1-methyl-1H-imidazol-5-yl)-2^1,2^2-dihydro-6-oxa-2(4,6)-quinolina-1,4(1,3)-dibenzenacyclohexaphan-2^2-one] | ≥ 7.30 | ≥ 8.00
[2H]C([2H])([2H])n1c(=O)cc2c3cc(ccc31)C(O)(c1cncn1C)c1cnc(C#N)c(c1)COc1cccc-2c1 (stereo not shown) [Compound 61, 3-hydroxy-2^1-(methyl-d3)-3-(1-methyl-1H-imidazol-5-yl)-2^2-oxo-2^1,2^2-dihydro-6-oxa-2(4,6)-quinolina-4(3,5)-pyridina-1(1,3)-benzenacyclohexaphane-4^6-carbonitrile] | 6.30 to 7.30 | ≥ 8.00
Cn1cncc1C1(O)c2ccc(Cl)c(c2)OCc2cccc(c2)-c2cc(=O)[nH]c3ccc1cc23 (stereo not shown) [Compound 13, 4^4-chloro-3-hydroxy-3-(1-methyl-1H-imidazol-5-yl)-2^1,2^2-dihydro-5-oxa-2(4,6)-quinolina-1,4(1,3)-dibenzenacyclohexaphan-2^2-one] | 6.30 to 7.30 | 7.00 to 8.00
COc1cc2c3cc(ccc3n1)C(O)(c1cncn1C)c1ccc(Cl)c(c1)OCCc1cccc-2c1 (stereo not shown) [Compound 24, 4^4-chloro-2^2-methoxy-3-(1-methyl-1H-imidazol-5-yl)-5-oxa-2(4,6)-quinolina-1,4(1,3)-dibenzenacycloheptaphan-3-ol] | < 6.30 | < 7.00
Cn1cncc1C1(O)c2cccc(c2)OCCc2cccc(c2)-c2cc(=O)[nH]c3ccc1cc23 (stereo not shown) [Compound 22, 3-hydroxy-3-(1-methyl-1H-imidazol-5-yl)-2^1,2^2-dihydro-5-oxa-2(4,6)-quinolina-1,4(1,3)-dibenzenacycloheptaphan-2^2-one] | 6.30 to 7.30 | 7.00 to 8.00
[2H]C([2H])([2H])n1c(=O)cc2c3cc(ccc31)C(N)(c1cncn1C)c1cnc(C#N)c(c1)COc1cccc-2c1 (stereo not shown) [Compound 62, 3-amino-2^1-(methyl-d3)-3-(1-methyl-1H-imidazol-5-yl)-2^2-oxo-2^1,2^2-dihydro-6-oxa-2(4,6)-quinolina-4(3,5)-pyridina-1(1,3)-benzenacyclohexaphane-4^6-carbonitrile] | < 6.30 | ≥ 8.00
Cn1cncc1C1(O)c2cccc(c2)COc2cccc(c2)-c2cc(=O)[nH]c3ccc1cc23 (stereo not shown) [Compound 41, 3-hydroxy-3-(1-methyl-1H-imidazol-5-yl)-2^1,2^2-dihydro-6-oxa-2(4,6)-quinolina-1,4(1,3)-dibenzenacyclohexaphan-2^2-one] | 6.30 to 7.30 | 7.00 to 8.00
Cn1cncc1C1(O)c2cccc(c2)OCc2cccc(c2)-c2cc(=O)n(C)c3ccc1cc23 (stereo not shown) [Compound 11, 3-hydroxy-2^1-methyl-3-(1-methyl-1H-imidazol-5-yl)-2^1,2^2-dihydro-5-oxa-2(4,6)-quinolina-1,4(1,3)-dibenzenacyclohexaphan-2^2-one] | < 6.30 | ≥ 8.00
COc1cc2c3cc(ccc3n1)C(O)(c1cncn1C)c1cccc(c1)COc1cccc-2c1 (stereo not shown) [Compound 40, 2^2-methoxy-3-(1-methyl-1H-imidazol-5-yl)-6-oxa-2(4,6)-quinolina-1,4(1,3)-dibenzenacyclohexaphan-3-ol] | 6.30 to 7.30 | < 7.00
Cn1cncc1C1(O)c2ccc(Cl)c(c2)COc2cccc(c2)-c2cc(=O)[nH]c3ccc1cc23 (stereo not shown) [Compound 44, 4^4-chloro-3-hydroxy-3-(1-methyl-1H-imidazol-5-yl)-2^1,2^2-dihydro-6-oxa-2(4,6)-quinolina-1,4(1,3)-dibenzenacyclohexaphan-2^2-one] | 6.30 to 7.30 | ≥ 8.00
Cn1cncc1[C@]1(N)c2ccc(Cl)c(c2)CCc2cccc(c2)-c2cc(=O)n(C)c3ccc1cc23 (racemic) [(R)-4, (R)-3-amino-4^4-chloro-2^1-methyl-3-(1-methyl-1H-imidazol-5-yl)-2^1,2^2-dihydro-2(4,6)-quinolina-1,4(1,3)-dibenzenacyclohexaphan-2^2-one] | – | < 7.00
Cn1cncc1[C@]1(N)c2ccc(C#N)c(c2)OCc2cccc(c2)-c2cc(C#N)nc3ccc1cc23 (racemic) [(R)-21, (R)-3-amino-3-(1-methyl-1H-imidazol-5-yl)-5-oxa-2(4,6)-quinolina-1,4(1,3)-dibenzenacyclohexaphane-2^2,4^4-dicarbonitrile] | – | < 7.00
Cn1cncc1C1(O)c2ccc(Cl)c(c2)OCCc2cccc(c2)-c2cc(=O)n(C)c3ccc1cc23 (stereo not shown) [Compound 26, 4^4-chloro-3-hydroxy-2^1-methyl-3-(1-methyl-1H-imidazol-5-yl)-2^1,2^2-dihydro-5-oxa-2(4,6)-quinolina-1,4(1,3)-dibenzenacycloheptaphan-2^2-one] | 6.30 to 7.30 | 7.00 to 8.00
Cn1cncc1C1(O)c2ccc(C#N)c(c2)COc2cccc(c2)-c2cc(C(N)=O)nc3ccc1cc23 (stereo not shown) [Compound 73, 4^4-cyano-3-hydroxy-3-(1-methyl-1H-imidazol-5-yl)-6-oxa-2(4,6)-quinolina-1,4(1,3)-dibenzenacyclohexaphane-2^2-carboxamide] | 6.30 to 7.30 | 7.00 to 8.00
Cn1cncc1[C@]1(N)c2ccc(C#N)c(c2)COc2cccc(c2)-c2cc(C#N)nc3ccc1cc23 (racemic) [(R)-58, (R)-3-amino-3-(1-methyl-1H-imidazol-5-yl)-6-oxa-2(4,6)-quinolina-1,4(1,3)-dibenzenacyclohexaphane-2^2,4^4-dicarbonitrile] | – | 7.00 to 8.00
Cn1cncc1[C@]1(N)c2ccc(C#N)c(c2)COc2cccc(c2)-c2cc(N3CCOCC3)nc3ccc1cc23 (racemic) [(R)-66, (R)-3-amino-3-(1-methyl-1H-imidazol-5-yl)-2^2-morpholino-6-oxa-2(4,6)-quinolina-1,4(1,3)-dibenzenacyclohexaphane-4^4-carbonitrile] | – | ≥ 8.00
COc1cc2c3cc(ccc3n1)C(O)(c1cncn1C)c1ccc(Cl)c(c1)CCOc1cccc-2c1 (stereo not shown) [Compound 64, 4^4-chloro-2^2-methoxy-3-(1-methyl-1H-imidazol-5-yl)-7-oxa-2(4,6)-quinolina-1,4(1,3)-dibenzenacycloheptaphan-3-ol] | – | < 7.00
Cn1cncc1[C@@]1(N)c2ccc(C#N)c(c2)COc2cccc(c2)-c2cc(=O)n(CC(O)CO)c3ccc1cc23 (stereo partly drawn) [(S)-69, (3S)-3-amino-2^1-(2,3-dihydroxypropyl)-3-(1-methyl-1H-imidazol-5-yl)-2^2-oxo-2^1,2^2-dihydro-6-oxa-2(4,6)-quinolina-1,4(1,3)-dibenzenacyclohexaphane-4^4-carbonitrile] | < 6.30 | ≥ 8.00
Cn1cncc1[C@]1(O)c2ccc(Cl)c(c2)OCc2cccc(c2)-c2cc(=O)n(C)c3ccc1cc23 (racemic) [(R)-14, (R)-4^4-chloro-3-hydroxy-2^1-methyl-3-(1-methyl-1H-imidazol-5-yl)-2^1,2^2-dihydro-5-oxa-2(4,6)-quinolina-1,4(1,3)-dibenzenacyclohexaphan-2^2-one] | – | < 7.00
COc1cc2c3cc(ccc3n1)C(O)(c1cncn1C)c1ccc(C#N)c(c1)OCc1cccc-2c1 (stereo not shown) [Compound 16, 3-hydroxy-2^2-methoxy-3-(1-methyl-1H-imidazol-5-yl)-5-oxa-2(4,6)-quinolina-1,4(1,3)-dibenzenacyclohexaphane-4^4-carbonitrile] | – | 7.00 to 8.00
